Patent publication US6150385A, “1,3,4-thiadiazoles useful for the treatment of CMV infections” (Pharmacia & Upjohn Company, priority 1999, dated 2000)

Molecular target: T1, HCMV polymerase (Human cytomegalovirus, UniProt P08546)
T1 construct: made in house; host or cells: SF-9 insect cells infected with recombinant baculovirus
Test: HCMV polymerase assay (scintillation proximity assay)
Assay type: biochemical
Conditions: percentage of inhibition at 25 μM concentration in CMV polymerase assay
How it was run: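 Values are percent inhibition at 25 μM, measured by scintillation proximity after capture of biotinylated poly(dA)-oligo(dT) (6 nM) extended with 90 nM 3H-dTTP. Recombinant SF-9-derived enzyme reacted 30 min at 25 or 37 °C in HEPES pH 7.5/KCl/MgCl2/BSA buffer, ±2 mM CHAPS, before EDTA termination.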

T1 sequence (P08546 whole entry): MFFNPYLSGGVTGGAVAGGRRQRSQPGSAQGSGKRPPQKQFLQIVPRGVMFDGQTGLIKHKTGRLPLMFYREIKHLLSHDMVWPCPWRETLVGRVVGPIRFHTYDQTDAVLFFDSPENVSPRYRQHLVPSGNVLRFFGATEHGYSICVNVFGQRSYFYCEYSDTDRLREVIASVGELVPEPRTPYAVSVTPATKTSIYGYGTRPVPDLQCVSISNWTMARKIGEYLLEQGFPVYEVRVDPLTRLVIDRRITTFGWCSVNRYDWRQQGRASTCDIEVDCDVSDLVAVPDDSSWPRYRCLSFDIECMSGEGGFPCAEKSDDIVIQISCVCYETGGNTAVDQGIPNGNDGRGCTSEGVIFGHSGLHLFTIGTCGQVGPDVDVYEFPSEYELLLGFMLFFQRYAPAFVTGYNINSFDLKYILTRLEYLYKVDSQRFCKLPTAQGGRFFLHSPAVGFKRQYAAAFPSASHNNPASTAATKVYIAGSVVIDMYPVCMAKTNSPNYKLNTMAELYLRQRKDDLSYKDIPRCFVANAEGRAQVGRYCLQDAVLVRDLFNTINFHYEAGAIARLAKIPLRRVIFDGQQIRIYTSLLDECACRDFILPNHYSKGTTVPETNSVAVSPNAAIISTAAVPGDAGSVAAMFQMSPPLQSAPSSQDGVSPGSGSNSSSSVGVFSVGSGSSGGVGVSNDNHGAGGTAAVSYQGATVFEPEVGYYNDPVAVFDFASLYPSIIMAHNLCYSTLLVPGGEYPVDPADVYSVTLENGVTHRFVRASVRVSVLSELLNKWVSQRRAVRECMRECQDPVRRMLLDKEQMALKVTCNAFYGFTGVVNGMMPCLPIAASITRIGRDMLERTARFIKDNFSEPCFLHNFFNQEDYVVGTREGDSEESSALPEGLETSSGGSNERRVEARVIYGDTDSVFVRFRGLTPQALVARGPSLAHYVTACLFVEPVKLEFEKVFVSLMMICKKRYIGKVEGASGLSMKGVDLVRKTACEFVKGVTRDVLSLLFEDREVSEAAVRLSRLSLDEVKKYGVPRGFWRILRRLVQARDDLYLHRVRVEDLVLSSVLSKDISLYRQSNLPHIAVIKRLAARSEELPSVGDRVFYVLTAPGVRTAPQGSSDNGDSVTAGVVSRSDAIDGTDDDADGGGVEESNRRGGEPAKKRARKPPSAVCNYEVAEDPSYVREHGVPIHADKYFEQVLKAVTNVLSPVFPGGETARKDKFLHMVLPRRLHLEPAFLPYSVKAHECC

Row | inhibition at 25 µM [%] | SMILES | % Inhib [%]
1 | 44.1 | O=C(Nc1nnc(NCc2cccc3ccccc23)s1)c1cc2ccccc2s1 [compound 214, N-{5-[(1-naphthylmethyl)amino]-1,3,4-thiadiazol-2-yl}-1-benzothiophene-2-carboxamide] | 
2 | 44.1 | O=C(/C=C/c1ccccc1)Nc1nnc(NCCc2c[nH]cn2)s1 [compound 215, (E)-N-(5-{[2-(1H-imidazol-4-yl)ethyl]amino}-1,3,4-thiadiazol-2-yl)-3-phenyl-2-propenamide] | 
3 | 43.9 | CCCCCCCCCCCNc1nnc(NC(=O)/C=C/c2ccccc2Cl)s1 [compound 216, (E)-3-(2-chlorophenyl)-N-[5-(undecylamino)-1,3,4-thiadiazol-2-yl]-2-propenamide] | 
4 |  | O=C(Nc1nnc(NCCC(c2ccccc2)c2ccccc2)s1)c1ccc(S(=O)(=O)F)cc1 [compound 217, 4-[({5-[(3,3-diphenylpropyl)amino]-1,3,4-thiadiazol-2-yl}amino)carbonyl]benzenesulfonyl fluoride] | 43.9
5 | 43.6 | O=C(Nc1nnc(NC2CCN(Cc3ccccc3)CC2)s1)c1cc2ccccc2s1 [compound 218, N-{5-[(1-benzyl-4-piperidinyl)amino]-1,3,4-thiadiazol-2-yl}-1-benzothiophene-2-carboxamide] | 
6 | 43.6 | CC(C)c1cc(C(C)C)c(C(=O)Nc2nnc(NCCc3c[nH]c4ccccc34)s2)c(C(C)C)c1 [compound 219, N-(5-{[2-(1H-indol-3-yl)ethyl]amino}-1,3,4-thiadiazol-2-yl)-2,4,6-triisopropylbenzamide] | 
7 | 43.6 | O=C(/C=C/c1ccccc1)Nc1nnc(NCCN2CCOCC2)s1 [compound 220, (E)-N-{5-[(2-morpholinoethyl)amino]-1,3,4-thiadiazol-2-yl}-3-phenyl-2-propenamide] | 
8 | 43.5 | O=C(/C=C/c1ccccc1Cl)Nc1nnc(NCCCn2ccnc2)s1 [compound 221, (E)-3-(2-chlorophenyl)-N-(5-{[3-(1H-imidazol-1-yl)propyl]amino}-1,3,4-thiadiazol-2-yl)-2-propenamide] | 
9 | 43.2 | O=C(Nc1nnc(NCc2ccncc2)s1)c1cc2ccccc2s1 [compound 222, N-{5-[(4-pyridinylmethyl)amino]-1,3,4-thiadiazol-2-yl}-1-benzothiophene-2-carboxamide] | 
10 | 43.1 | NS(=O)(=O)c1ccc(CNc2nnc(NC(=O)c3cc4ccccc4s3)s2)cc1 [compound 223, N-(5-{[4-(aminosulfonyl)benzyl]amino}-1,3,4-thiadiazol-2-yl)-1-benzothiophene-2-carboxamide] | 
11 | 43 | COc1ccccc1C(=O)Nc1nnc(NCC(c2ccccc2)c2ccccc2)s1 [compound 224, N-{5-[(2,2-diphenylethyl)amino]-1,3,4-thiadiazol-2-yl}-2-methoxybenzamide] | 
12 | 42.9 | O=C(Nc1nnc(NCCCCc2ccccc2)s1)c1c(Cl)cccc1Cl [compound 225, 2,6-dichloro-N-{5-[(4-phenylbutyl)amino]-1,3,4-thiadiazol-2-yl}benzamide] | 
13 | 42.9 | O=C(Nc1nnc(NCCC(c2ccccc2)c2ccccc2)s1)c1cccc([N+](=O)[O-])c1 [compound 226, N-{5-[(3,3-diphenylpropyl)amino]-1,3,4-thiadiazol-2-yl}-3-nitrobenzamide] | 
14 | 42.8 | CCOc1ccc2ccccc2c1C(=O)Nc1nnc(NC2CC2)s1 [compound 227, N-[5-(cyclopropylamino)-1,3,4-thiadiazol-2-yl]-2-ethoxy-1-naphthamide] | 
15 | 42.8 | O=C(Nc1nnc(NCCCN2CCCC2=O)s1)c1cc(F)cc(F)c1 [compound 228, 3,5-difluoro-N-(5-{[3-(2-oxo-1-pyrrolidinyl)propyl]amino}-1,3,4-thiadiazol-2-yl)benzamide] | 
16 | 42.3 | Cc1ccc(C(=O)Nc2nnc(NCCc3ccc(S(N)(=O)=O)cc3)s2)cc1 [compound 230, N-(5-{[4-(aminosulfonyl)phenethyl]amino}-1,3,4-thiadiazol-2-yl)-4-methylbenzamide] | 
17 | 42.3 | CCOc1ccc2ccccc2c1C(=O)Nc1nnc(NCCCCc2ccccc2)s1 [compound 231, 2-ethoxy-N-{5-[(4-phenylbutyl)amino]-1,3,4-thiadiazol-2-yl}-1-naphthamide] | 
18 | 42.2 | CC(C)c1cc(C(C)C)c(C(=O)Nc2nnc(NCCN3CCCCC3)s2)c(C(C)C)c1 [compound 232, 2,4,6-triisopropyl-N-{5-[(2-piperidinoethyl)amino]-1,3,4-thiadiazol-2-yl}benzamide] | 
19 | 42.1 | CCOc1ccc2ccccc2c1C(=O)Nc1nnc(NCC(C)(C)C)s1 [compound 233, 2-ethoxy-N-[5-(neopentylamino)-1,3,4-thiadiazol-2-yl]-1-naphthamide] | 
20 | 42 | O=C(Nc1nnc(NCCc2cccs2)s1)c1cc2ccccc2s1 [compound 234, N-(5-{[2-(2-thienyl)ethyl]amino}-1,3,4-thiadiazol-2-yl)-1-benzothiophene-2-carboxamide] | 

Row | inhibition at 25 µM [%] | SMILES | % Inhib [%]
21 | 41.6 | O=C(Nc1nnc(NCCNc2ccccc2)s1)c1cc2ccccc2s1 [compound 236, N-{5-[(2-anilinoethyl)amino]-1,3,4-thiadiazol-2-yl}-1-benzothiophene-2-carboxamide] | 
22 | 41.5 | O=C(Nc1nnc(NCc2cccs2)s1)c1cc2ccccc2s1 [compound 237, N-{5-[(2-thienylmethyl)amino]-1,3,4-thiadiazol-2-yl}-1-benzothiophene-2-carboxamide] | 
23 | 41.5 | CCCCCCCC/C=C/CCCCCCCC(=O)Nc1nnc(NCc2ccco2)s1 [compound 238, (E)-N-{5-[(2-furylmethyl)amino]-1,3,4-thiadiazol-2-yl}-9-octadecenamide] | 
24 | 41.4 | CCCCCCCCCCCNc1nnc(NC(=O)c2ccc(C(F)(F)F)cc2)s1 [compound 239, 4-(trifluoromethyl)-N-[5-(undecylamino)-1,3,4-thiadiazol-2-yl]benzamide] | 
25 | 41.3 | O=C(/C=C/c1ccccc1Cl)Nc1nnc(NCCC(c2ccccc2)c2ccccc2)s1 [compound 240, (E)-3-(2-chlorophenyl)-N-{5-[(3,3-diphenylpropyl)amino]-1,3,4-thiadiazol-2-yl}-2-propenamide] | 
26 | 41.3 | O=C(Nc1nnc(NCc2ccccn2)s1)c1c(Cl)cccc1Cl [compound 241, 2,6-dichloro-N-{5-[(2-pyridinylmethyl)amino]-1,3,4-thiadiazol-2-yl}benzamide] | 
27 | 41.3 | CCOc1ccc2ccccc2c1C(=O)Nc1nnc(NCCCn2ccnc2)s1 [compound 242, 2-ethoxy-N-(5-{[3-(1H-imidazol-1-yl)propyl]amino}-1,3,4-thiadiazol-2-yl)-1-naphthamide] | 
28 | 41.1 | O=C(Nc1nnc(NCCC(c2ccccc2)c2ccccc2)s1)c1ccc(F)cc1F [compound 243, N-{5-[(3,3-diphenylpropyl)amino]-1,3,4-thiadiazol-2-yl}-2,4-difluorobenzamide] | 
29 | 41 | COc1ccc(CNc2nnc(NC(=O)c3ccc(C#N)cc3)s2)cc1OC [compound 244, 4-cyano-N-{5-[(3,4-dimethoxybenzyl)amino]-1,3,4-thiadiazol-2-yl}benzamide] | 
30 |  | O=C(Nc1nnc(NCCCCc2ccccc2)s1)c1ccc(S(=O)(=O)F)cc1 [compound 245, 4-[({5-[(4-phenylbutyl)amino]-1,3,4-thiadiazol-2-yl}amino)carbonyl]benzenesulfonyl fluoride] | 41.0
31 | 40.9 | CCCCCCCC/C=C/CCCCCCCC(=O)Nc1nnc(NCC2CCCO2)s1 (stereo not shown) [compound 246, (E)-N-{5-[(tetrahydro-2-furanylmethyl)amino]-1,3,4-thiadiazol-2-yl}-9-octadecenamide] | 
32 | 40.9 | O=C(Nc1nnc(NCc2ccco2)s1)c1ccc(Cl)c(Cl)c1 [compound 247, 3,4-dichloro-N-{5-[(2-furylmethyl)amino]-1,3,4-thiadiazol-2-yl}benzamide] | 
33 | 40.8 | CC(C)c1cc(C(C)C)c(C(=O)Nc2nnc(NCCNc3ccccc3)s2)c(C(C)C)c1 [compound 248, N-{5-[(2-anilinoethyl)amino]-1,3,4-thiadiazol-2-yl}-2,4,6-triisopropylbenzamide] | 
34 | 40.6 | CCCCCCCC/C=C/CCCCCCCC(=O)Nc1nnc(NCCC#N)s1 [compound 249, (E)-N-{5-[(2-cyanoethyl)amino]-1,3,4-thiadiazol-2-yl}-9-octadecenamide] | 
35 | 40.5 | CC(C)c1cc(C(C)C)c(C(=O)Nc2nnc(NC3CCCCCC3)s2)c(C(C)C)c1 [compound 250, N-[5-(cycloheptylamino)-1,3,4-thiadiazol-2-yl]-2,4,6-triisopropylbenzamide] | 
36 | 40.3 | O=C(/C=C/c1ccccc1Cl)Nc1nnc(NCc2ccco2)s1 [compound 251, (E)-3-(2-chlorophenyl)-N-{5-[(2-furylmethyl)amino]-1,3,4-thiadiazol-2-yl}-2-propenamide] | 
37 | 40.2 | O=C(Nc1nnc(NCCc2c[nH]c3ccccc23)s1)c1ccc(I)cc1 [compound 252, N-(5-{[2-(1H-indol-3-yl)ethyl]amino}-1,3,4-thiadiazol-2-yl)-4-iodobenzamide] | 
38 | 40.1 | CCCCCCCC/C=C/CCCCCCCC(=O)Nc1nnc(NC2CCN(Cc3ccccc3)CC2)s1 [compound 253, (E)-N-{5-[(1-benzyl-4-piperidinyl)amino]-1,3,4-thiadiazol-2-yl}-9-octadecenamide] | 
39 | 40 | O=C(CCCCCl)Nc1nnc(NCCSc2ccccc2)s1 [compound 254, 5-chloro-N-(5-{[2-(phenylsulfanyl)ethyl]amino]-1,3,4-thiadiazol-2-yl)pentanamide] | 
40 | 39.9 | O=C(Nc1nnc(NCCc2c[nH]c3ccccc23)s1)c1c(Cl)cccc1Cl [compound 255, 2,6-dichloro-N-(5-{[2-(1H-indol-3-yl)ethyl]amino}-1,3,4-thiadiazol-2-yl)benzamide] | 
